# Values quoted from earlier work, collected in patent US4127532A, “Novel heptapeptides, intermediates therefor, and compositions and methods employing said heptapeptides” (priority 1977, dated 1978).
# Legend:
# [1] = injected directly into the brain of the rat
# [2] = test system: opiate activity
# [3] = test system: partially purified brain opiate receptor sites
substance,measurement,setting,value
H-Tyr-Gly-Gly-Phe-Met-OH [methionine enkephalin],analgesic activity,[1],weak analgesic agent of short duration
same,activity in bioassays for opiate activity,[2],very active
same,binding to partially purified brain opiate receptor sites,[3],binds stereo-specifically
